# According to patent publication US20240287470A1 (priority 2023, published 2024):
# Counter-ions that a name gives are not always drawn. Like-named read-outs stand apart in the source and are kept apart here.
# Legend:
# HEK293 cells [1] = format: cell-based; conditions: detergent 0.5% w/v, then 0.2% DB
# [2] = system: Murine leukemia virus (MuLV)
# [3] = system: pseudo rabies virus (PRV)
# HEK293 cells [4] = test: CHAPS evaluated at larger scale (1 L bioreactor); format: cell-based; conditions: final concentration 0.5% w/v
# Procedure: CHAPS was identified as a potential detergent candidate in the small scale screens and was evaluated at a larger scale (1 L bioreactor) at a final concentration of 0.5% w/v.
# HEK293 cells [5] = test: CTAB modifier screen: vg recovery in clarified lysate and loose resin affinity elution; format: cell-based; conditions: LCD, 0.5% w/v CTAB
# Procedure: The modifiers were selected based on their potential to interfere with and inhibit non-specific binding of rAAV3B capsids to heparin sulfate proteoglycan receptors on cells and cell lysis debris. Using 10 mL cell culture aliquots, modifiers were delivered to the culture at the concentrations shown in Table 3 and mixed for 10 min at room temperature (RT) prior to addition of the CTAB lysis detergent. CTAB was added to a final concentration of 0.5% w/v. Fold improvement in productivity was calculated by dividing total vector genomes (vgs) measured by qPCR quantification of copies of the vector transgene in product produced by a test condition over total vgs produced using 0.5% octoxynol-9 and 0.2% DB as the control lysis and flocculation condition. Total vgs were measured in the clarified lysate and in eluate produced by loose resin affinity purification of the clarified lysate. Conditions which produced greater than 2-fold improvement are highlighted in bold in Table 3.
# [6] = cited from earlier work
# [7] = No modifier, LCD (approximately 12E+6 cells/mL), rAAV3B vector
# [8] = 0.5% octoxynol-9, 90 mins, value from large volume plating
# [9] = modifier 80 μM CSE (chondroitin sulfate E)
# [10] = modifier 80 μM SOS (sucrose octasulfate)
# [11] = modifier 400 ug/mL low molecular weight (LMW) Dextran
# [12] = 0.025% CTAB, 90 mins, value from titer plate
# [13] = 0.05% CTAB, 90 mins, value from large volume plating
# [14] = 0.25% CTAB, 90 mins, value from large volume plating
compound,measurement,setting,value
CCCCCCCCCCCC(=O)N(C)CC(=O)[O-].[Na+] [sarkosyl],Fold improvement over octoxynol-9 and DB control (capsid recovery in clarified lysate),HEK293 cells [1]; [7],0.3 fold
"CCCCCCCCCCCCOS(=O)(=O)[O-].[Na+] [SDS, sodium dodecyl sulfate]",Fold improvement over octoxynol-9 and DB control (capsid recovery in clarified lysate),"HEK293 cells [1]; 0.2M Arginine modifier, LCD",0.9 fold
same,Fold improvement over octoxynol-9 and DB control (capsid recovery in clarified lysate),"HEK293 cells [1]; 0.7M NaCl modifier, LCD",0.2 fold
same,Fold improvement over octoxynol-9 and DB control (capsid recovery in clarified lysate),HEK293 cells [1]; [7],0.1 fold
"CCCCCCCCCCCC(=O)OCCOCCOCCOCCOCCOCCOCCOCCOCCOCCOCCOCCOCCOCCOCCOCCOCCOCCOCCOCCOCC(OCCOCCOCCOCCOCCOCCOCCOCCOCCOCCOCCOCCOCCOCCOCCOCCOCCOCCOCCOCCO)C1OCC(OCCOCCOCCOCCOCCOCCOCCOCCOCCOCCOCCOCCOCCOCCOCCOCCOCCOCCOCCOCCO)C1OCCOCCOCCOCCOCCOCCOCCOCCOCCOCCOCCOCCOCCOCCOCCOCCOCCOCCOCCOCCO (stereo not shown) [PS20, polysorbate 20]",Fold improvement over octoxynol-9 and DB control (capsid recovery in clarified lysate),"HEK293 cells [1]; 0.2M Arginine modifier, LCD",1.8 fold
same,Fold improvement over octoxynol-9 and DB control (capsid recovery in clarified lysate),"HEK293 cells [1]; 0.7M NaCl modifier, LCD",0.7 fold
same,Fold improvement over octoxynol-9 and DB control (capsid recovery in clarified lysate),HEK293 cells [1]; [7],0.5 fold
Octoxynol-9 [reference compound],Minimum reduction values Run 1,[2],≥4.43 ± 0.25 Log
same,Minimum reduction values Run 2,[2],≥4.49 ± 0.27 Log
same,Process demonstrated viral removal or inactivation (Log reduction >1),[2],Demonstrated inactivation
same,Process demonstrated viral removal or inactivation (Log reduction >1),"[3]; 0.5% octoxynol-9, 90 mins",Demonstrated inactivation
same,Minimum reduction values Run 1,[3]; [8],≥4.43 ± 0.28 Log
same,Minimum reduction values Run 2,[3]; [8],≥4.19 ± 0.18 Log
"C[C@H](CCC(=O)NCCC[N+](C)(C)CCCS(=O)(=O)[O-])[C@H]1CC[C@H]2[C@@H]3[C@H](O)C[C@@H]4C[C@H](O)CC[C@]4(C)[C@H]3C[C@H](O)[C@]12C [CHAPS, 3-[(3-cholamidopropyl)dimethylammonio]-1-propanesulfonate]",Fold improvement over octoxynol-9 and DB control (capsid recovery in clarified lysate),"HEK293 cells [1]; 0.2M Arginine modifier, LCD",1.0 fold
same,Fold improvement over octoxynol-9 and DB control (capsid recovery in clarified lysate),"HEK293 cells [1]; 0.7M NaCl modifier, LCD",1.6 fold
same,Fold improvement over octoxynol-9 and DB control (capsid recovery in clarified lysate),HEK293 cells [1]; [7],2.1 fold
same,recovery improvement at larger scale,HEK293 cells [4],failed to provide the same recovery improvement at large scale as at small scale
"CCCCCCCCCCCCCCCC[N+](C)(C)C.[Br-] [CTAB, cetyltrimethylammonium bromide]",Fold improvement over octoxynol-9 and DB control (capsid recovery in clarified lysate),"HEK293 cells [1]; No modifier, HCD (approximately 18E+6 cells/mL), rAAV3B vector",2.8 fold
same,Fold improvement over octoxynol-9 and DB control (capsid recovery in clarified lysate),HEK293 cells [1]; [7],1.6 fold
same,fold productivity over octoxynol-9/DB control - affinity elution,HEK293 cells [5]; [9],0.05 fold
same,fold productivity over octoxynol-9/DB control - clarified lysate,HEK293 cells [5]; [9],1.22 fold
same,fold productivity over octoxynol-9/DB control - affinity elution,HEK293 cells [5]; [10],3.20 fold
same,fold productivity over octoxynol-9/DB control - clarified lysate,HEK293 cells [5]; [10],2.61 fold
same,fold productivity over octoxynol-9/DB control - affinity elution,HEK293 cells [5]; [11],1.20 fold
same,fold productivity over octoxynol-9/DB control - clarified lysate,HEK293 cells [5]; [11],0.14 fold
same,fold productivity over octoxynol-9/DB control - affinity elution,HEK293 cells [5]; modifier 6 mM ZnSO4,2.41 fold
same,fold productivity over octoxynol-9/DB control - clarified lysate,HEK293 cells [5]; modifier 6 mM ZnSO4,1.86 fold
same,fold productivity over octoxynol-9/DB control - affinity elution,HEK293 cells [5]; modifier 50 mM MgSO4,7.77 fold
same,fold productivity over octoxynol-9/DB control - clarified lysate,HEK293 cells [5]; modifier 50 mM MgSO4,3.21 fold
same,fold productivity over octoxynol-9/DB control - affinity elution,HEK293 cells [5]; no modifier,3.81 fold
same,fold productivity over octoxynol-9/DB control - clarified lysate,HEK293 cells [5]; no modifier,2.81 fold
same,Process demonstrated viral removal or inactivation (Log reduction >1),"[3]; 0.025% CTAB, 90 mins",Did not demonstrate inactivation
same,Minimum reduction values Run 1,[3]; [12],0.71 ± 0.44 Log
same,Minimum reduction values Run 2,[3]; [12],0.71 ± 0.39 Log
same,Process demonstrated viral removal or inactivation (Log reduction >1),"[3]; 0.05% CTAB, 90 mins",Demonstrated inactivation
same,Minimum reduction values Run 1,[3]; [13],≥4.31 ± 0.27 Log
same,Minimum reduction values Run 2,[3]; [13],≥4.67 ± 0.21 Log
same,Process demonstrated viral removal or inactivation (Log reduction >1),"[3]; 0.25% CTAB, 90 mins",Demonstrated inactivation
same,Minimum reduction values Run 1,[3]; [14],≥4.73 ± 0.25 Log
same,Minimum reduction values Run 2,[3]; [14],≥4.73 ± 0.31 Log
same,critical micelle concentration,[6]; in water in the presence of MgSO4,about 0.63 mM
same,critical micelle concentration,[6]; in water,about 1.04 mM
"C[C@H](CCC(=O)O)[C@H]1CC[C@H]2[C@@H]3CC[C@@H]4C[C@H](O)CC[C@]4(C)[C@H]3C[C@H](O)[C@]12C [DOC, deoxycholic acid sodium salt]",Fold improvement over octoxynol-9 and DB control (capsid recovery in clarified lysate),HEK293 cells [1]; [7],0.1 fold
